Patent publication US20100146645A1, “TRANSGENIC ANIMAL MODEL FOR MODELLING PA[…], A METHOD FOR IDENTIFYING COMPOUNDS FOR TREATMENT OF DISEASES OR DISORDERS CAUSED BY PA[…] AND A METHOD FOR USING WFS1 PROTEIN AS A TARGET FOR I[…] COMPOUNDS AGAINST PA[…]” (priority 2006, published 2010)

Legend:
[1] = test system: Wfs1 −/− mice; assay: Light-dark cage test, vocalization; assay type: in vivo, mouse; conditions: Wfs1 −/− mice (30% vocalized), anxiolytic dose of diazepam injected
Experimental: The cage was divided into two: a ⅔ part was lighted and a ⅓ part with darkened cover. The light part was divided into three equal parts, so that the most aversive part was the third part, which is located most distantly from the dark part. Anxious animals preferred to remain mostly in the dark part and avoided the aversive light partition. The experiment was performed one week after the elevated plus-maze experiment and no preliminary isolation of the animals was applied. Lighting level in the light part of the cage was 270 lux.
Namely, the female Wfs1 −/− mice performed 1.5-2 times less entrances to the various parts of the light partition, if compared to the wild type mice (FIG. 7) and the duration of their stay in the light part was twice shorter (FIG. 8). […] In the test cage 30% of the Wfs1 −/− mice vocalized.

[2] = test system: Wfs1 −/− mice; assay: Elevated plus-maze, effect of diazepam on anxiety behaviour and vocalization; assay type: in vivo, mouse

SMILES: CN1C(=O)CN=C(c2ccccc2)c2cc(Cl)ccc21 [diazepam]
- Vocalization in the test cage [1]: completely removed
- Suppressed exploratory activity and risk behaviour ([2]; Wfs1-deficient mice, diazepam 1 mg/kg): significantly reduced
- Stress-induced vocalization ([2]; Wfs1 −/− mice, diazepam 0.5 mg/kg): not effective
- Stress-induced vocalization ([2]; Wfs1 −/− mice, diazepam 1 mg/kg): removed
- Vocalization (share of vocalizing mice) ([2]; Wfs1 −/− mice, diazepam group, physiological saline group 24%): 0%
- Time spent on the open arms of the cage ([2]; female Wfs1 −/− homozygotes, diazepam 1 mg/kg vs physiological saline, FIG. 4): increased
- Number of downwards examinations (head dippings) from the open arms ([2]; female Wfs1 −/− homozygotes, diazepam 1 mg/kg vs physiological saline, FIG. 5): increased
- Risk avoidance behaviour ([2]; female Wfs1 −/− homozygotes, diazepam 1 mg/kg vs physiological saline, FIG. 6): significantly decreased
